Test system: Raphanus sativus
Assay: Root growth promotion test: main root length of Raphanus sativus seedlings in seed growing bag
Format: in vivo
Details: compound 2 at 3 ppm, compound I at 10 ppm, mixture 3 ppm compound 2 + 10 ppm compound I; seeds on cardboard impregnated with 17 ml solution; 25° C., 7 days; average of three repeats
Description: One (1) part of each of the compound 2 and the compound I was dissolved in 99 parts of dimethyl sulfoxide and each of the resultant solutions was diluted with ion-exchange water so as to adjust the concentrations of the compound 2 and the compound I to 3 ppm and 10 ppm, respectively to thereby prepare respective test chemical solutions.
In the same manner, chemical solutions were prepared so as to adjust the concentrations of the compound 2 and the compound I to 6 ppm and 20 ppm, respectively, and then the respective chemical solutions were mixed in an equivalent amount to prepare a mixed test chemical solution containing 3 ppm of the compound 2 and 10 ppm of the compound I.
A cardboard in a seed growing bag (measuring 177 mm×163 mm, manufactured by Daiki Rika Kogyo Co., Ltd.) was impregnated with 17 ml of each of these test chemical solutions, and 3 seeds of Raphanus sativus were sown on the cardboard. The seed growing bag was placed in a plastic container, and the plastic container was sealed. After culturing in a bright place at 25° C. for 7 days, the length of main root was measured. For comparison, the test was conducted in the same manner without treating with the test chemical solution, and the length of the main root was measured. […]

Q: With `O=C(O)CCC(=O)NCCc1ccccc1` [Compound I, 4-oxo-4-[(2-phenylethyl)amino]-butyric acid] as the molecule, how does the “Relative value (main root length, non-treated control group as 100)” value read?
A: Its value is 148.

Reference: patent US20120135863A1, “COMPOSITION AND METHOD FOR PROMOTING PLANT ROOT GROWTH” (priority 2009, published 2012)
